Laboratory results: the NIST ThermoML archive (doi:10.1016/j.jct.2006.01.008)

Experiment: mn = molality of the nth substance listed, in mol/kg
Conditions: Liquid

O=[N+]([O-])[O-].[Li+] [lithium nitrate] + CO
Conditions | mass density [kg/m3]
348.25 K, 312 kPa, m1 = 3.614 | 887.13
348.25 K, 318 kPa, m1 = 1.803 | 819.91
348.25 K, 325 kPa, m1 = 0.5393 | 764.85
348.25 K, 4991 kPa, m1 = 0.5393 | 770.52
348.25 K, 5006 kPa, m1 = 3.614 | 891.37
348.25 K, 5009 kPa, m1 = 1.803 | 824.85
348.25 K, 9982 kPa, m1 = 3.614 | 895.64
348.25 K, 10005 kPa, m1 = 1.803 | 829.8
348.25 K, 10014 kPa, m1 = 0.5393 | 776.21
348.25 K, 14983 kPa, m1 = 1.803 | 834.47
348.25 K, 14987 kPa, m1 = 0.5393 | 781.48
348.25 K, 15007 kPa, m1 = 3.614 | 899.77
348.25 K, 19991 kPa, m1 = 1.803 | 838.93
348.25 K, 19995 kPa, m1 = 3.614 | 903.68
348.25 K, 20004 kPa, m1 = 0.5393 | 786.51
348.25 K, 24984 kPa, m1 = 1.803 | 843.17
348.25 K, 24990 kPa, m1 = 3.614 | 907.45
348.25 K, 25002 kPa, m1 = 0.5393 | 791.23
348.25 K, 29989 kPa, m1 = 0.5393 | 795.72
348.25 K, 29996 kPa, m1 = 3.614 | 911.08
348.25 K, 30007 kPa, m1 = 1.803 | 847.26
348.25 K, 34987 kPa, m1 = 0.5393 | 800.01
348.25 K, 34994 kPa, m1 = 3.614 | 914.59
348.25 K, 34996 kPa, m1 = 1.803 | 851.13
348.25 K, 39988 kPa, m1 = 0.5393 | 804.12
348.25 K, 39995 kPa, m1 = 1.803 | 854.88
348.25 K, 40008 kPa, m1 = 3.614 | 917.97
373.15 K, 572 kPa, m1 = 0.1551 | 719.83
373.15 K, 578 kPa, m1 = 0.8904 | 757.09
373.15 K, 627 kPa, m1 = 0.2943 | 727.47
373.15 K, 4896 kPa, m1 = 0.1551 | 726.23
373.15 K, 4896 kPa, m1 = 0.8904 | 762.68
373.15 K, 5038 kPa, m1 = 0.2943 | 733.83
373.15 K, 10365 kPa, m1 = 0.2943 | 741.1
373.15 K, 10738 kPa, m1 = 0.1551 | 734.38
373.15 K, 10738 kPa, m1 = 0.8904 | 769.86
373.15 K, 15238 kPa, m1 = 0.1551 | 740.28
373.15 K, 15238 kPa, m1 = 0.8904 | 775.11
373.15 K, 15875 kPa, m1 = 0.2943 | 748.15
373.15 K, 20369 kPa, m1 = 0.2943 | 753.53
373.15 K, 21035 kPa, m1 = 0.1551 | 747.38
373.15 K, 21035 kPa, m1 = 0.8904 | 781.49
373.15 K, 25124 kPa, m1 = 0.1551 | 752.05
373.15 K, 25124 kPa, m1 = 0.8904 | 785.73
373.15 K, 25852 kPa, m1 = 0.2943 | 759.66
373.15 K, 30147 kPa, m1 = 0.2943 | 764.13
373.15 K, 30418 kPa, m1 = 0.1551 | 757.68
373.15 K, 30418 kPa, m1 = 0.8904 | 790.91
373.15 K, 35753 kPa, m1 = 0.2943 | 769.52
373.15 K, 35984 kPa, m1 = 0.1551 | 763.11
373.15 K, 35984 kPa, m1 = 0.8904 | 795.98
373.15 K, 39901 kPa, m1 = 0.1551 | 766.61
373.15 K, 39901 kPa, m1 = 0.8904 | 799.31
373.15 K, 39951 kPa, m1 = 0.2943 | 773.22
373.27 K, 528 kPa, m1 = 3.614 | 865.29
373.27 K, 532 kPa, m1 = 1.803 | 796.7
373.27 K, 4988 kPa, m1 = 1.803 | 802.12
373.27 K, 5015 kPa, m1 = 3.614 | 869.9
373.27 K, 9996 kPa, m1 = 1.803 | 807.82
373.27 K, 10010 kPa, m1 = 3.614 | 874.76
373.27 K, 14985 kPa, m1 = 1.803 | 813.14
373.27 K, 14994 kPa, m1 = 3.614 | 879.35
373.27 K, 19990 kPa, m1 = 1.803 | 818.17
373.27 K, 19991 kPa, m1 = 3.614 | 883.74
373.27 K, 24989 kPa, m1 = 1.803 | 822.92
373.27 K, 24995 kPa, m1 = 3.614 | 887.93
373.27 K, 29999 kPa, m1 = 3.614 | 891.95
373.27 K, 30013 kPa, m1 = 1.803 | 827.46
373.27 K, 34987 kPa, m1 = 3.614 | 895.79
373.27 K, 35004 kPa, m1 = 1.803 | 831.77
373.27 K, 39994 kPa, m1 = 3.614 | 899.5
373.27 K, 39997 kPa, m1 = 1.803 | 835.89
373.28 K, 542 kPa, m1 = 0.5393 | 739.72
373.28 K, 4986 kPa, m1 = 0.5393 | 746.09
373.28 K, 9996 kPa, m1 = 0.5393 | 752.7
373.28 K, 14984 kPa, m1 = 0.5393 | 758.8
373.28 K, 20003 kPa, m1 = 0.5393 | 764.52
373.28 K, 24985 kPa, m1 = 0.5393 | 769.85
373.28 K, 29993 kPa, m1 = 0.5393 | 774.9
373.28 K, 35001 kPa, m1 = 0.5393 | 779.7
373.28 K, 39997 kPa, m1 = 0.5393 | 784.24
398.15 K, 1035 kPa, m1 = 0.2943 | 699.13
398.15 K, 1138 kPa, m1 = 0.8904 | 730.97
398.15 K, 1432 kPa, m1 = 0.1551 | 691.82
398.15 K, 5023 kPa, m1 = 0.8904 | 736.91
398.15 K, 5126 kPa, m1 = 0.1551 | 698.39
398.15 K, 5236 kPa, m1 = 0.2943 | 706.42
398.15 K, 10058 kPa, m1 = 0.8904 | 744.23
398.15 K, 10628 kPa, m1 = 0.1551 | 707.59
398.15 K, 10698 kPa, m1 = 0.2943 | 715.31
398.15 K, 15234 kPa, m1 = 0.1551 | 714.77
398.15 K, 15573 kPa, m1 = 0.8904 | 751.75
398.15 K, 15874 kPa, m1 = 0.2943 | 723.14
398.15 K, 20035 kPa, m1 = 0.8904 | 757.46
398.15 K, 20452 kPa, m1 = 0.2943 | 729.57
398.15 K, 21035 kPa, m1 = 0.1551 | 723.12
398.15 K, 25069 kPa, m1 = 0.8904 | 763.49
398.15 K, 25235 kPa, m1 = 0.2943 | 735.81
398.15 K, 26078 kPa, m1 = 0.1551 | 729.75
398.15 K, 30027 kPa, m1 = 0.1551 | 734.55
398.15 K, 30047 kPa, m1 = 0.8904 | 769.04
398.15 K, 30385 kPa, m1 = 0.2943 | 741.96
398.15 K, 35256 kPa, m1 = 0.2943 | 747.26
398.15 K, 35845 kPa, m1 = 0.8904 | 774.96
398.15 K, 35941 kPa, m1 = 0.1551 | 741.06
398.15 K, 39127 kPa, m1 = 0.2943 | 751.09
398.15 K, 39254 kPa, m1 = 0.8904 | 778.18
398.15 K, 39789 kPa, m1 = 0.1551 | 744.86
398.28 K, 900 kPa, m1 = 3.614 | 842.05
398.28 K, 4994 kPa, m1 = 3.614 | 846.92
398.28 K, 10001 kPa, m1 = 3.614 | 852.52
398.28 K, 14988 kPa, m1 = 3.614 | 857.76
398.28 K, 19997 kPa, m1 = 3.614 | 862.72
398.28 K, 24994 kPa, m1 = 3.614 | 867.42
398.28 K, 29993 kPa, m1 = 3.614 | 871.89
398.28 K, 34991 kPa, m1 = 3.614 | 876.17
398.28 K, 39987 kPa, m1 = 3.614 | 880.27
398.29 K, 904 kPa, m1 = 0.5393 | 712.1
398.29 K, 906 kPa, m1 = 1.803 | 771.63
398.29 K, 4994 kPa, m1 = 1.803 | 777.53
398.29 K, 4996 kPa, m1 = 0.5393 | 719.24
398.29 K, 9985 kPa, m1 = 0.5393 | 727.14
398.29 K, 9986 kPa, m1 = 1.803 | 784.19
398.29 K, 14989 kPa, m1 = 1.803 | 790.36
398.29 K, 15010 kPa, m1 = 0.5393 | 734.37
398.29 K, 19986 kPa, m1 = 1.803 | 796.11
398.29 K, 20018 kPa, m1 = 0.5393 | 740.98
398.29 K, 24995 kPa, m1 = 1.803 | 801.52
398.29 K, 25002 kPa, m1 = 0.5393 | 747.09
398.29 K, 29986 kPa, m1 = 1.803 | 806.59
398.29 K, 30001 kPa, m1 = 0.5393 | 752.82
398.29 K, 34984 kPa, m1 = 0.5393 | 758.22
398.29 K, 34988 kPa, m1 = 1.803 | 811.42
398.29 K, 39996 kPa, m1 = 0.5393 | 763.34
398.29 K, 40001 kPa, m1 = 1.803 | 816.03
